Measurements as given in US6737383B1, “Herbicidal oxadiazolidines” (priority 1999, dated 2004).

Columns and labels:
blackgrass = experiment: Test B pre/postemergence blackgrass; format: in vivo, Alopecurus myosuroides
Method in brief: (§1)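 Herbicidal effect was estimated by eye on a ten-point control scale after plants spent twelve to sixteen days in a greenhouse following soil or foliar treatment. Foliar sprays targeted plants at one to four leaves; all doses were formulated in a non-phytotoxic solvent with surfactant.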

surinam grass = experiment: Test B pre/postemergence surinam grass; format: in vivo, Brachiaria decumbens
Method in brief: as §1

cocklebur = experiment: Test B pre/postemergence cocklebur; format: in vivo, Xanthium strumarium
Method in brief: as §1

corn = experiment: Test B pre/postemergence corn; format: in vivo, Zea mays
Method in brief: as §1

crabgrass = experiment: Test B pre/postemergence crabgrass; format: in vivo, Digitaria sanguinalis
Method in brief: as §1

giant foxtail = experiment: Test B pre/postemergence giant foxtail; format: in vivo, Setaria faberii
Method in brief: as §1

morningglory = experiment: Test B pre/postemergence morningglory; format: in vivo, Ipomoea hederacea
Method in brief: as §1

pigweed = experiment: Test B pre/postemergence pigweed; format: in vivo, Amaranthus retroflexus
Method in brief: as §1

rape = experiment: Test B pre/postemergence rape; format: in vivo, Brassica napus
Method in brief: as §1

soybean = experiment: Test B pre/postemergence soybean; format: in vivo, Glycine max
Method in brief: as §1

sugar beet = experiment: Test B pre/postemergence sugar beet; format: in vivo, Beta vulgaris
Method in brief: as §1

velvetleaf = experiment: Test B pre/postemergence velvetleaf; format: in vivo, Abutilon theophrasti
Method in brief: as §1

wheat = experiment: Test B pre/postemergence wheat; format: in vivo, Triticum aestivum
Method in brief: as §1

wild oat = experiment: Test B pre/postemergence wild oat; format: in vivo, Avena fatua
Method in brief: as §1

purple nutsedge = experiment: Test B pre/postemergence purple nutsedge; format: in vivo, Cyperus rotundus
Method in brief: as §1

rice = experiment: Test B flood test rice; format: in vivo, Oryza sativa; settings: for Rice plant response rating: Postemergence section (flood test species)
Method in brief: (§2)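 Flood test on plants grown to the 2-leaf stage; treated plants kept in greenhouse twelve to sixteen days, then visually rated against controls on a 0 (no effect) to 10 (complete control) scale.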

smallflower flatsedge = experiment: Test B flood test smallflower flatsedge; format: in vivo, Cyperus difformis; settings: for S. Flatsedge plant response rating: Postemergence section (flood test species)
Method in brief: as §2

duck salad = experiment: Test B flood test duck salad; format: in vivo, Heteranthera limosa
Method in brief: as §2

bamyardgrass = experiment: Test B flood test barnyardgrass; format: in vivo, Echinochloa crus-galli
Method in brief: as §2

[1] = Postemergence, Rate 250 g/ha, scale 0 to 10, 0 is no effect, 10 is complete control
[2] = Postemergence, Rate 500 g/ha, scale of 0 to 10 where 0 is no effect and 10 is complete control
[3] = Preemergence, Rate 62 g/ha, scale 0 to 10 (0 no effect, 10 complete control)
[4] = Preemergence, Rate 125 g/ha, scale of 0 to 10 where 0 is no effect and 10 is complete control
[5] = Preemergence, Rate 250 g/ha, scale of 0 to 10 where 0 is no effect and 10 is complete control
[6] = Preemergence, Rate 500 g/ha, scale 0 to 10, 0 is no effect, 10 is complete control
[7] = Rate 62 g/ha, Postemergence, scale of 0 to 10 where 0 is no effect and 10 is complete control
[8] = Rate 125 g/ha, Postemergence, scale 0 to 10, 0 is no effect, 10 is complete control
[9] = Preemergence, Rate 250 g/ha, scale 0 to 10, 0 is no effect, 10 is complete control
[10] = Rate 500 g/ha, scale of 0 to 10 where 0 is no effect and 10 is complete control
[11] = Rate 125 g/ha, scale 0 to 10, 0 is no effect, 10 is complete control
[12] = flood test species, listed under Postemergence, Rate 250 g/ha, scale 0 to 10, 0 is no effect, 10 is complete control
[13] = Postemergence section (flood test species), Rate 500 g/ha, scale of 0 to 10 where 0 is no effect and 10 is complete control
[14] = Rate 62 g/ha, Postemergence (flood test species), scale of 0 to 10 where 0 is no effect and 10 is complete control
[15] = Rate 125 g/ha, Postemergence section (flood test species), scale 0 to 10, 0 is no effect, 10 is complete control

CC(C)N(C(=O)n1oc(=O)n(CCl)c1=O)c1ccccc1 [Compound 423]
Plant response rating, Blackgrass (blackgrass; [1]): 0
Blackgrass plant response rating (blackgrass; [2]): 2
Plant response rating, Blackgrass (blackgrass; [3]): 0
Plant response rating, Blackgrass (blackgrass; [4]): 0
Blackgrass plant response rating (blackgrass; [5]): 0
Blackgrass plant response rating (blackgrass; [6]): 0
Blackgrass plant response rating (blackgrass; [7]): 0
Blackgrass plant response rating (blackgrass; [8]): 0
Plant response rating, B. signalgrass (surinam grass; [1]): 0
B. signalgrass plant response rating (surinam grass; [2]): 0
Plant response rating, B. signalgrass (surinam grass; [3]): 0
Plant response rating, B. signalgrass (surinam grass; [4]): 0
B. signalgrass plant response rating (surinam grass; [5]): 0
B. signalgrass plant response rating (surinam grass; Preemergence, Rate 500 g/ha, scale of 0 to 10 where 0 is no effect and 10 is complete control): 0
B. signalgrass plant response rating (surinam grass; [7]): 0
B. signalgrass plant response rating (surinam grass; [8]): 0
Plant response rating, Cocklebur (cocklebur; [1]): 0
Cocklebur plant response rating (cocklebur; [2]): 0
Plant response rating, Cocklebur (cocklebur; [3]): 0
Plant response rating, Cocklebur (cocklebur; [4]): 0
Cocklebur plant response rating (cocklebur; [9]): 0
Cocklebur plant response rating (cocklebur; [6]): 0
Cocklebur plant response rating (cocklebur; [7]): 0
Cocklebur plant response rating (cocklebur; [8]): 0
Plant response rating, Corn (corn; [1]): 0
Corn plant response rating (corn; [2]): 0
Plant response rating, Corn (corn; [3]): 0
Plant response rating, Corn (corn; [4]): 0
Corn plant response rating (corn; [9]): 0
Corn plant response rating (corn; [6]): 0
Corn plant response rating (corn; [7]): 0
Corn plant response rating (corn; [8]): 0
Plant response rating, Crabgrass (crabgrass; [1]): 0
Crabgrass plant response rating (crabgrass; [2]): 1
Plant response rating, Crabgrass (crabgrass; [3]): 0
Plant response rating, Crabgrass (crabgrass; [4]): 0
Crabgrass plant response rating (crabgrass; [6]): 2
Crabgrass plant response rating (crabgrass; [7]): 0
Crabgrass plant response rating (crabgrass; [8]): 0
Plant response rating, Giant foxtail (giant foxtail; [1]): 0
Giant foxtail plant response rating (giant foxtail; [2]): 2
Plant response rating, Giant foxtail (giant foxtail; [3]): 0
Plant response rating, Giant foxtail (giant foxtail; [4]): 0
Giant foxtail plant response rating (giant foxtail; [9]): 3
Giant foxtail plant response rating (giant foxtail; [6]): 4
Giant foxtail plant response rating (giant foxtail; [7]): 0
Giant foxtail plant response rating (giant foxtail; [8]): 0
Morningglory plant response rating (morningglory; [2]): 8
Plant response rating, Morningglory (morningglory; [3]): 0
Plant response rating, Morningglory (morningglory; [4]): 0
Morningglory plant response rating (morningglory; [9]): 0
Morningglory plant response rating (morningglory; [6]): 0
Morningglory plant response rating (morningglory; [8]): 2
Plant response rating, Redroot pigweed (pigweed; [1]): 0
Redroot pigweed plant response rating (pigweed; [2]): 0
Plant response rating, Redroot pigweed (pigweed; [3]): 0
Plant response rating, Redroot pigweed (pigweed; [4]): 0
Redroot pigweed plant response rating (pigweed; [9]): 0
Redroot pigweed plant response rating (pigweed; [6]): 0
Redroot pigweed plant response rating (pigweed; [8]): 0
Plant response rating, Rape (rape; [1]): 0
Rape plant response rating (rape; [2]): 0
Plant response rating, Rape (rape; [3]): 0
Plant response rating, Rape (rape; [4]): 0
Rape plant response rating (rape; [9]): 0
Rape plant response rating (rape; [6]): 0
Rape plant response rating (rape; [8]): 0
Plant response rating, Soybean (soybean; [1]): 2
Soybean plant response rating (soybean; [2]): 2
Plant response rating, Soybean (soybean; [3]): 0
Plant response rating, Soybean (soybean; [4]): 0
Soybean plant response rating (soybean; [9]): 0
Soybean plant response rating (soybean; [6]): 0
Soybean plant response rating (soybean; [8]): 2
Plant response rating, Sugarbeets (sugar beet; [1]): 0
Sugarbeets plant response rating (sugar beet; [2]): 0
Plant response rating, Sugarbeets (sugar beet; [3]): 0
Plant response rating, Sugarbeets (sugar beet; [4]): 0
Sugarbeets plant response rating (sugar beet; [9]): 0
Sugarbeets plant response rating (sugar beet; [6]): 0
Sugarbeets plant response rating (sugar beet; [8]): 0
Plant response rating, Velvetleaf (velvetleaf; [1]): 0
Velvetleaf plant response rating (velvetleaf; [2]): 0
Plant response rating, Velvetleaf (velvetleaf; [3]): 0
Plant response rating, Velvetleaf (velvetleaf; [4]): 0
Velvetleaf plant response rating (velvetleaf; [9]): 0
Velvetleaf plant response rating (velvetleaf; [6]): 0
Velvetleaf plant response rating (velvetleaf; [8]): 0
Wheat plant response rating (wheat; [2]): 0
Plant response rating, Wheat (wheat; [3]): 0
Plant response rating, Wheat (wheat; [4]): 0
Wheat plant response rating (wheat; [9]): 0
Wheat plant response rating (wheat; [6]): 0
Wheat plant response rating (wheat; [8]): 0
Wild oats plant response rating (wild oat; [2]): 0
Plant response rating, Wild oats (wild oat; [3]): 0
Plant response rating, Wild oats (wild oat; [4]): 0
Wild oats plant response rating (wild oat; [9]): 0
Wild oats plant response rating (wild oat; [6]): 0
Wild oats plant response rating (wild oat; [8]): 0
Plant response rating, Nutsedge (purple nutsedge; [1]): 0
Nutsedge plant response rating (purple nutsedge; [2]): 0
Plant response rating, Nutsedge (purple nutsedge; [3]): 0
Plant response rating, Nutsedge (purple nutsedge; [4]): 0
Nutsedge plant response rating (purple nutsedge; [9]): 0
Nutsedge plant response rating (purple nutsedge; [6]): 0
Nutsedge plant response rating (purple nutsedge; [8]): 0
Rice plant response rating (rice; [10]): 0
Rice plant response rating (rice; [11]): 0
Plant response rating, Rice (rice; [12]): 0
S. Flatsedge plant response rating (smallflower flatsedge; [10]): 0
S. Flatsedge plant response rating (smallflower flatsedge; [11]): 0
Plant response rating, S. Flatsedge (smallflower flatsedge; [12]): 0
Ducksalad plant response rating (duck salad; [13]): 0
Ducksalad plant response rating (duck salad; [14]): 0
Ducksalad plant response rating (duck salad; [15]): 0
Plant response rating, Ducksalad (duck salad; [12]): 0
Barnyardgrass plant response rating (bamyardgrass; [13]): 0
Barnyardgrass plant response rating (bamyardgrass; [14]): 0
Barnyardgrass plant response rating (bamyardgrass; [15]): 0
Plant response rating, Barnyardgrass (bamyardgrass; [12]): 0
